From patent US20230265151A1, “GIP/GLP1 CO-AGONIST COMPOUNDS” (priority 2020, published 2023)
pKi: −log10 of the molar value. Like-named read-outs stand apart in the source and are kept apart here.

Experiments:
[1] = target: T1, human GLP-1 receptor (hGLP-1R) (Homo sapiens, UniProt P43220); assay: [125I]-GLP-1 binding, SPA with membranes of HEK293 cells expressing hGLP-1R; details: for Ki: human GLP-1R, geometric mean (SEM, n), read-out: Binding Affinity Ki, nM (SEM, n) hGLP-1R
T1 construct: expressed in transfected cells; crude membranes

[2] = target: T2, human GIP receptor (hGIPR) (Homo sapiens, UniProt P48546); assay: [125I]-GIP binding, SPA with membranes of CHO cells expressing hGIPR; details: for Ki: human GIPR, geometric mean (SEM, n), read-out: Binding Affinity Ki, nM (SEM, n) hGIPR
T2 construct: expressed in transfected cells; crude membranes
T2 sequence (P48546 22-466): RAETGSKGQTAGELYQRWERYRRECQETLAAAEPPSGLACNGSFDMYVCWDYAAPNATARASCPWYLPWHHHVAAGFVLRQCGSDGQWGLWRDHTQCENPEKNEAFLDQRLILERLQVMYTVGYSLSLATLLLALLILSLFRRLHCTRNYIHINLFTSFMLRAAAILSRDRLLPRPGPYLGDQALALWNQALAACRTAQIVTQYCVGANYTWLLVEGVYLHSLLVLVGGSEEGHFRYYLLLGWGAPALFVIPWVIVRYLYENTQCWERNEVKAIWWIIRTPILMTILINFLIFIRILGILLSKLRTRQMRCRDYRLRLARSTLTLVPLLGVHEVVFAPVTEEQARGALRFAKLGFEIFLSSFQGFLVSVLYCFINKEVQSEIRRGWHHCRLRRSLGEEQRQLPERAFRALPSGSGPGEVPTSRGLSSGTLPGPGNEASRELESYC

[3] = target: T3, hGIPR (Homo sapiens, UniProt P48546); assay: Functional cAMP formation (HTRF) in HEK-293 clonal cells expressing hGIPR, 0.1% bovine casein, without or with 1.0% human serum albumin; assay type: cell-based; details: 37° C.; for Emax: percent of maximal response to GIP(1-42)NH2, read-out: hGIPR Emax, % ± SEM; for EC50: cAMP, 0.1% bovine casein (no human serum albumin), geometric mean
T3 construct: expressed in transfected cells
T3 sequence (P48546 22-466): T2 sequence (P48546 22-466)
How it was run: (§1)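 Cells were stimulated with peptide for 30 min at 37° C, then intracellular cAMP was measured by competitive HTRF (665/620 nm ratio) and converted to nM using a cAMP standard curve. Relative EC50 and Emax came from four-parameter logistic fits of percent maximal response against peptide concentration.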

[4] = target: T4, hGCGR (Homo sapiens, UniProt P47871); assay: Functional cAMP formation (HTRF) in HEK-293 clonal cells expressing hGCGR, 0.1% bovine casein, without or with 1.0% human serum albumin; assay type: cell-based; details: 37° C.
T4 construct: expressed in transfected cells
How it was run: as §1

[5] = target: hGLP-1R (Homo sapiens, UniProt P43220); assay: Functional cAMP formation (HTRF) in HEK-293 clonal cells expressing hGLP-1R, 0.1% bovine casein, without or with 1.0% human serum albumin; assay type: cell-based; design: expressed in transfected cells; details: for Emax: percent of maximal response to GLP-1(7-36)NH2; for EC50: cAMP
How it was run: as §1

[6] = read-out: hGIPR EC50, nM (SEM, n)
[7] = cAMP, 0.1% bovine casein (no human serum albumin), geometric mean, read-out: hGCGR EC50, nM (SEM, n)
[8] = HEK293, cAMP, 37° C., 0.1% bovine casein, arithmetic mean, read-out: hGLP-1R Emax, % ± SEM
[9] = 37° C., 0.1% bovine casein (no human serum albumin), geometric mean, read-out: hGLP-1R EC50, nM (SEM, n)
[10] = HEK293, cAMP, 0.1% bovine casein and 1.0% human serum albumin
[11] = cAMP, 0.1% bovine casein and 1.0% human serum albumin, geometric mean (SEM, n), read-out: hGCGR EC50, nM (SEM, n)
[12] = HEK293, cAMP, 37° C., 0.1% bovine casein and 1.0% human serum albumin, read-out: hGLP-1R Emax, % ± SEM

hGLP-1R, sequence (P43220 24-463): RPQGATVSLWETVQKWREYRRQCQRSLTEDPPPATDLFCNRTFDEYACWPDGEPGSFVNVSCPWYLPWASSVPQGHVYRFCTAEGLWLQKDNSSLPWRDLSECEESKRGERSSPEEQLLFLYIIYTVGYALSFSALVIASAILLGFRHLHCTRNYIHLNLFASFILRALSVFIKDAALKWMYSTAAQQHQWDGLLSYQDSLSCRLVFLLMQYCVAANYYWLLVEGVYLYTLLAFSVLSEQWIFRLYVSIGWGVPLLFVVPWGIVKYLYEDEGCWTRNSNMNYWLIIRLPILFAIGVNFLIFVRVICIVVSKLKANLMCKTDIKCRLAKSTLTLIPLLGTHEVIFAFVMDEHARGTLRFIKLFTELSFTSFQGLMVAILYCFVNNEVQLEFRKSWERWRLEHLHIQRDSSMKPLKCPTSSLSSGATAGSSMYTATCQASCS
T1 sequence (P43220 24-463): as above
T4 sequence (P47871 26-477): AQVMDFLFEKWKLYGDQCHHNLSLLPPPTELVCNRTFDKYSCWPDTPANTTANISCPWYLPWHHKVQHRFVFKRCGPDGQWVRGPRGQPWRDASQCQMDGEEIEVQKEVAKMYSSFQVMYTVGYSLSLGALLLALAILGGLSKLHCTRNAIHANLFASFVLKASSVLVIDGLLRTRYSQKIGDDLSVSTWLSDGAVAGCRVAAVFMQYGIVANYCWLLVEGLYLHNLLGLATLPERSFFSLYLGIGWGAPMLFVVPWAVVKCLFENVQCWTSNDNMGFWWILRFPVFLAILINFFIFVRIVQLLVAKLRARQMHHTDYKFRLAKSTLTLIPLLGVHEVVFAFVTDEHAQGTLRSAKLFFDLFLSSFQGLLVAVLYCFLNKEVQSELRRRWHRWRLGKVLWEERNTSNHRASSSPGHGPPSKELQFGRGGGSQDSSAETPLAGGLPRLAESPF

Compound | Ki [1] | Ki [2] | EC50 [3, 6] | EC50 [4, 7] | Emax [5, 8] | EC50 [5, 9] | Emax [3, 10] | EC50 [4, 11] | Emax [5, 12] | further results
CCCCCCCCCCCC(=O)N[C@@H](CCC(=O)NCCOCCOCC(=O)NCCOCCOCC(=O)NCCCC[C@H](NC(=O)[C@H](CCCN)NC(=O)[C@H](CC(=O)O)NC(=O)[C@H](CC(C)C)NC(=O)[C@](C)(CC(C)C)NC(=O)[C@@H](NC(=O)C(C)(C)NC(=O)[C@H](Cc1ccncc1)NC(=O)[C@H](CC(=O)O)NC(=O)[C@H](CO)NC(=O)[C@@H](NC(=O)[C@](C)(Cc1ccccc1F)NC(=O)[C@@H](NC(=O)CNC(=O)[C@H](CCC(=O)O)NC(=O)C(C)(C)NC(=O)[C@@H](N)Cc1ccc(O)cc1)[C@@H](C)O)[C@@H](C)O)[C@@H](C)CC)C(=O)N[C@@H](C)C(=O)N[C@@H](CCC(N)=O)C(=O)NC(C)(C)C(=O)N[C@@H](CCCCNC(=O)COCCOCCNC(=O)COCCOCCNC(=O)CC[C@H](NC(=O)CCCCCCCCCCC)C(=O)O)C(=O)N[C@@H](Cc1ccccc1)C(=O)N[C@H](C(=O)N[C@H](CCC(=O)O)C(=O)N[C@@](C)(Cc1ccc(O)cc1)C(=O)N[C@@H](CC(C)C)C(=O)N[C@H](C(=O)N[C@@H](CCC(=O)O)C(=O)NCC(=O)NCC(=O)N1CCC[C@H]1C(=O)N[C@@H](CO)C(=O)N[C@@H](CO)C(=O)NCC(=O)N[C@@H](C)C(=O)N1CCC[C@H]1C(=O)N1CCC[C@H]1C(=O)N1CCC[C@H]1C(=O)N[C@@H](CO)C(N)=O)[C@@H](C)CC)[C@@H](C)CC)C(=O)O [Example 322] | 0.234 nM | 0.0162 nM | 0.00937 nM | > 9950 nM | 100% | 0.144 nM |  |  |  | Emax ([3]; HEK293, 0.1% bovine casein and 1.0% human serum albumin): 89.7%; EC50 ([4]; 0.1% bovine casein and 1.0% human serum albumin, geometric mean, read-out: hGCGR EC50, nM (SEM, n)): > 9950 nM; Emax ([5]; HEK293, 0.1% bovine casein and 1.0% human serum albumin, 37° C., read-out: hGLP-1R Emax, % ± SEM): 94.5%
CCCCCCCCCCCC(=O)N[C@@H](CCC(=O)NCCOCCOCC(=O)NCCOCCOCC(=O)NCCCC[C@H](NC(=O)[C@H](CO)NC(=O)[C@@H]1CCCN1C(=O)[C@@H]1CCCN1C(=O)[C@@H]1CCCN1C(=O)[C@H](C)NC(=O)CNC(=O)[C@H](CO)NC(=O)[C@H](CO)NC(=O)[C@@H]1CCCN1C(=O)CNC(=O)CNC(=O)[C@H](CCC(=O)O)NC(=O)[C@@H](NC(=O)[C@H](CC(C)C)NC(=O)[C@](C)(Cc1ccc(O)cc1)NC(=O)[C@@H](CCC(=O)O)NC(=O)[C@@H](NC(=O)[C@H](Cc1ccccc1)NC(=O)[C@H](CCC(=O)O)NC(=O)C(C)(C)NC(=O)[C@H](CCC(N)=O)NC(=O)[C@H](C)NC(=O)[C@H](CCCCNC(=O)COCCOCCNC(=O)COCCOCCNC(=O)CC[C@H](NC(=O)CCCCCCCCCCC)C(=O)O)NC(=O)[C@H](CCCN)NC(=O)[C@H](CC(=O)O)NC(=O)[C@H](CC(C)C)NC(=O)[C@](C)(CC(C)C)NC(=O)[C@@H](NC(=O)C(C)(C)NC(=O)[C@H](Cc1ccncc1)NC(=O)[C@H](CC(=O)O)NC(=O)[C@H](CO)NC(=O)[C@@H](NC(=O)[C@](C)(Cc1ccccc1F)NC(=O)[C@@H](NC(=O)CNC(=O)[C@H](CCC(=O)O)NC(=O)C(C)(C)NC(=O)[C@@H](N)Cc1ccc(O)cc1)[C@@H](C)O)[C@@H](C)O)[C@@H](C)CC)[C@@H](C)CC)[C@@H](C)CC)C(N)=O)C(=O)O [Example 324] | 0.168 nM | 0.0163 nM | 0.00632 nM | > 9950 nM | 97.6% | 0.0647 nM | 85.4% | > 9950 nM | 99.4% | EC50 ([5]; 37° C., 0.1% bovine casein and 1.0% human serum albumin, geometric mean (SEM, n), read-out: hGLP-1R EC50, nM (SEM, n)): 4.38 nM
CC[C@H](C)[C@H](NC(=O)[C@H](CC(C)C)NC(=O)[C@](C)(Cc1ccc(O)cc1)NC(=O)[C@@H](CCC(=O)O)NC(=O)[C@@H](NC(=O)[C@H](Cc1ccccc1)NC(=O)[C@H](CCCCNC(=O)COCCOCCNC(=O)CC[C@H](NC(=O)CCCCCCCCCOc1ccc(C(=O)O)cc1)C(=O)O)NC(=O)C(C)(C)NC(=O)[C@H](CCC(N)=O)NC(=O)[C@H](C)NC(=O)[C@H](CCCCNC(=O)COCCOCCNC(=O)CC[C@H](NC(=O)CCCCCCCCCOc1ccc(C(=O)O)cc1)C(=O)O)NC(=O)[C@H](CCCN)NC(=O)[C@H](CC(=O)O)NC(=O)[C@H](CC(C)C)NC(=O)[C@](C)(CC(C)C)NC(=O)[C@@H](NC(=O)C(C)(C)NC(=O)[C@H](Cc1ccncc1)NC(=O)[C@H](CC(=O)O)NC(=O)[C@H](CO)NC(=O)[C@@H](NC(=O)[C@](C)(Cc1ccccc1F)NC(=O)[C@@H](NC(=O)CNC(=O)[C@H](CCC(=O)O)NC(=O)C(C)(C)NC(=O)[C@@H](N)Cc1ccc(O)cc1)[C@@H](C)O)[C@@H](C)O)[C@@H](C)CC)[C@@H](C)CC)C(=O)N[C@@H](CCC(=O)O)C(=O)NCC(=O)NCC(=O)N1CCC[C@H]1C(=O)N[C@@H](CO)C(=O)N[C@@H](CO)C(=O)NCC(=O)N[C@@H](C)C(=O)N1CCC[C@H]1C(=O)N1CCC[C@H]1C(=O)N1CCC[C@H]1C(=O)N[C@@H](CO)C(N)=O [Example 360] |  |  |  |  |  |  |  |  |  | pKi [1]: 9.17; pKi [2]: 10.34; EC50 ([3]; hGIPR EC50, nM (SEM, n)): 0.0121 nM; EC50 ([4]; hGCGR EC50, nM (SEM, n), cAMP, 0.1% bovine casein (no human serum albumin), geometric mean): > 9950 nM; EC50 ([4]; hGCGR EC50, nM (SEM, n), cAMP, 0.1% bovine casein and 1.0% human serum albumin, geometric mean (SEM, n)): > 9950 nM; Emax ([5]; HEK293, read-out: hGLP-1R Emax, % ± SEM, cAMP, 37° C., 0.1% bovine casein and 1.0% human serum albumin): 97.1%; Emax ([5]; HEK293, read-out: hGLP-1R Emax, % ± SEM, cAMP, 37° C., 0.1% bovine casein, arithmetic mean): 89.8%; EC50 ([5]; hGLP-1R EC50, nM (SEM, n), 37° C., 0.1% bovine casein (no human serum albumin), geometric mean): 0.301 nM
CC[C@H](C)[C@H](NC(=O)[C@H](CC(C)C)NC(=O)[C@](C)(Cc1ccc(O)cc1)NC(=O)[C@H](CCCCNC(=O)COCCOCCNC(=O)COCCOCCNC(=O)CC[C@H](NC(=O)CCCCCCCCCCCCC(=O)O)C(=O)O)NC(=O)[C@@H](NC(=O)[C@H](Cc1ccccc1)NC(=O)[C@H](CCCN)NC(=O)C(C)(C)NC(=O)[C@H](CCC(N)=O)NC(=O)[C@H](C)NC(=O)[C@H](CCC(N)=O)NC(=O)[C@H](CCCN)NC(=O)[C@H](CC(=O)O)NC(=O)[C@H](CC(C)C)NC(=O)[C@](C)(CC(C)C)NC(=O)[C@@H](NC(=O)C(C)(C)NC(=O)[C@H](Cc1ccncc1)NC(=O)[C@H](CC(=O)O)NC(=O)[C@H](CO)NC(=O)[C@@H](NC(=O)[C@](C)(Cc1ccccc1F)NC(=O)[C@@H](NC(=O)CNC(=O)[C@H](CCC(=O)O)NC(=O)C(C)(C)NC(=O)[C@@H](N)Cc1ccc(O)cc1)[C@@H](C)O)[C@@H](C)O)[C@@H](C)CC)[C@@H](C)CC)C(=O)N[C@@H](CCCCNC(=O)COCCOCCNC(=O)COCCOCCNC(=O)CC[C@H](NC(=O)CCCCCCCCCCCCC(=O)O)C(=O)O)C(=O)NCC(=O)NCC(=O)N1CCC[C@H]1C(=O)N[C@@H](CO)C(=O)N[C@@H](CO)C(=O)NCC(=O)N[C@@H](C)C(=O)N1CCC[C@H]1C(=O)N1CCC[C@H]1C(=O)N1CCC[C@H]1C(=O)N[C@@H](CO)C(N)=O [Example 391] | 0.346 nM | 0.0279 nM | 0.0101 nM | > 9950 nM | 109% | 0.167 nM | 88.3% | > 9950 nM | 105% | 
